The source of these data is patent US8658638B2, “Mineralocorticoid receptor antagonist and methods of use” (priority 2009, dated 2014).

The EC50 is the concentration that produces a half-maximal response. Low values mean a more potent agent, high ones a less potent agent. As a reminder, the IC50 is the concentration at which inhibition is half-maximal.

The target in this assay is T1, human progesterone receptor (PR) (Homo sapiens, UniProt P06401).
T1 construct: expressed in transfected cells; host or cells: HEK293
T1 sequence (P06401 1-933): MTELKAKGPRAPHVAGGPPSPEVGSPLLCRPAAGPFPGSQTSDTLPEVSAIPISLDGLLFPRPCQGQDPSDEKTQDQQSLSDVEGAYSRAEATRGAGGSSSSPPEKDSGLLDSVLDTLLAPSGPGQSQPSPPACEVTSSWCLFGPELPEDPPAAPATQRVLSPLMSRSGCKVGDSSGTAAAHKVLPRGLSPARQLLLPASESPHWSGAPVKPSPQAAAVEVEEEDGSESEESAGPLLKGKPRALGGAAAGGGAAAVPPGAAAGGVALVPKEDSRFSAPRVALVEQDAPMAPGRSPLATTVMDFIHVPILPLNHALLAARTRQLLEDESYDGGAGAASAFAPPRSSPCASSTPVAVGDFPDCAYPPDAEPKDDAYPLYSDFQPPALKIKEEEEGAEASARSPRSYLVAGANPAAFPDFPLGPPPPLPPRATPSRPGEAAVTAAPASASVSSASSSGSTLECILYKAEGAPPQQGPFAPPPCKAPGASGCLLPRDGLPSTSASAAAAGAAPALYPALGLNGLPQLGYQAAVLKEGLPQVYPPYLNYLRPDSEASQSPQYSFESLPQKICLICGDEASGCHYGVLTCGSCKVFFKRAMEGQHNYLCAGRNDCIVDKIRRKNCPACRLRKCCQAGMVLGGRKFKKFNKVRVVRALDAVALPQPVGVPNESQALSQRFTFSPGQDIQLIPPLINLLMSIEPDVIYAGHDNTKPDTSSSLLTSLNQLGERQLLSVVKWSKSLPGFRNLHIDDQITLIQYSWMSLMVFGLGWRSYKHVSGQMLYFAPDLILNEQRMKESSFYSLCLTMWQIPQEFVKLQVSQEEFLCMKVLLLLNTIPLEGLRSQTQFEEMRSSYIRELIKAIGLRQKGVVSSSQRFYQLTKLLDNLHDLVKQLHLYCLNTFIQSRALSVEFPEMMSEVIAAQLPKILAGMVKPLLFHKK
The experiment in a line: Nuclear hormone receptor panel screen (luciferase reporter, HEK293), PR. The format is cell-based. The source says:
Aldosterone exerts it physiological effects through interaction with the mineralocorticoid receptor. Following cytoplasmic binding of aldosterone to MR, the ligand receptor complex translocates to the cell nucleus where it binds to hormone response elements on DNA to initiate expression of target genes. […] The solvents, reagents, and ligands employed in the functional assay are readily available from commercial sources, or can be prepared by one of ordinary skill in the art.
Human embryonic kidney HEK293 cells are transfected with steroid hormone receptor and reporter gene plasmids using a suitable transfection reagent such as Fugene™. […] After 24 hours incubation with test compounds, cells are lysed and luciferase activity is determined using standard techniques.
Data are fitted to a four parameter-fit logistic curve to determine EC50 values. […] IC50 values are determined similarly using antagonist mode assay data. In the antagonist mode, percent inhibitions are determined by comparing test compound activity in the presence of low concentration of agonist (0.08 nM aldosterone for MR, 0.25 nM dexamethasone for GR, 0.66 nM of methyltrienolone for AR, and 0.08 nM of promegestone for PR) to the response produced by the same low concentration of agonist in the absence of test compound.

Under “agonist mode”, `O=c1[nH]c2cc(/C=C3\c4ccccc4COc4cc(F)ccc43)ccc2n1[C@@H]1C[C@@H]2COCCN2C1` [Compound (I), 5-((E)-(3-fluorodibenzo[b,e]oxepin-11(6H)-ylidene)methyl)-1-((7R,8aR)-hexahydro-1H-pyrrolo[2,1-c][1,4]oxazin-7-yl)-1H-benzo[d]imidazol-2(3H)-one] showed an EC50 of more than 10 µM. Where the note is “antagonist mode, 0.08 nM promegestone”, the IC50 is approximately 924 nM.
